According to article PMC10862539, “Chelation of Mitochondrial Iron as an Antiparasitic Strategy” (ACS Infectious Diseases, 2024):
Like-named read-outs stand apart in the source and are kept apart here.

Tests used:
Human fibroblast BJ1 = test: Drug sensitivity assay, human fibroblast BJ1 (CellTiter-Glo); assay type: cell-based; conditions: for EC50: 48 h
Experimental: (§1) All organisms were cultivated according to the conditions summarized in Table S2, which also includes strain specifications. Dose–response curves were obtained by their cultivation on 96 well plates in a 2-fold series dilution of the appropriate drug, in a total volume of 200 μL (with the exception of P. falciparum, where the total volume was 100 μL). Iron supplementation was achieved by mixing the compound with Fe-NTA in an equimolar ratio prior to setting up the experiment. Results were plotted and processed using Prism 8.0 (GraphPad Software). A two-tailed unpaired t-test was performed to assess the significance of the difference between mitoDFO with and without added iron. Selectivity was calculated as the ratio of the average EC50 value for human fibroblasts to the average EC50 value for the appropriate pathogen. All data were obtained from a minimum of three independent biological replicates.

T. brucei STIB (BSF) = test: Drug sensitivity assay, T. brucei STIB bloodstream form (resazurine); assay type: cell-based, Trypanosoma brucei; conditions: for selectivity (for −Fe): EC50 human fibroblasts / EC50 T. brucei STIB (BSF); for EC50: Trypanosoma brucei, 72 h
Experimental: as §1

T. gambiense (BSF) = test: Drug sensitivity assay, T. gambiense bloodstream form (resazurine); assay type: cell-based, Trypanosoma gambiense; conditions: for selectivity (for −Fe): EC50 human fibroblasts / EC50 T. gambiense (BSF); for EC50: Trypanosoma brucei, 72 h
Experimental: as §1

L. mexicana (amastigote) = test: Drug sensitivity assay, axenic L. mexicana amastigote (flow cytometry); assay type: cell-based, Leishmania mexicana; conditions: for EC50: Leishmania mexicana
Experimental: as §1

L. major (promastigote) = test: Drug sensitivity assay, L. major promastigote (flow cytometry); assay type: cell-based; conditions: for EC50: Leishmania major, 120 h
Experimental: as §1

P. falciparum = test: Drug sensitivity assay, P. falciparum (SYBR green I); assay type: cell-based, Plasmodium falciparum; conditions: for selectivity (for −Fe): EC50 human fibroblasts / EC50 P. falciparum; for EC50: Plasmodium falciparum
Experimental: as §1

A. castellanii = test: Drug sensitivity assay, A. castellanii (flow cytometry); assay type: cell-based, Acanthamoeba castellanii; conditions: for EC50: Acanthamoeba castellanii, 96 h; for selectivity (for −Fe): EC50 human fibroblasts / EC50 A. castellanii
Experimental: as §1

T. brucei BSF cells = test: Sytox Green assay, percentage of live cells; assay type: cell-based, Trypanosoma brucei
Experimental: Sytox Green Assay to determine the percentage of live treated and untreated cells at selected time points. T. brucei BSF cells were seeded at a concentration of 2 × 10^5 cells/mL in 5 mL HMI-9 medium in aerobic cultivation flasks. Cells were treated with compounds at final concentration of 0,05 µM, 0,1 µM, 0,25 µM mitoDFO and 10 µM, 100 µM DFO. In addition, there was a group of untreated cells. At defined time points (24, 36, 48, and 72 h), 20 µL samples were collected from each flask. These samples were then diluted tenfold in fresh HMI-9 medium, reaching a final volume of 200 µL, with the addition of 2 µL SYTOX Green Dead Cell Stain (Invitrogen). Following a 30-minute incubation under standard growth conditions, the cells were analyzed using a Guava EasyCyte 8HT flow cyometer (Luminex flow) with detection at 504/523 nm. This entire procedure was conducted in biological triplicates.
Compound Concentration % of live cells

iron-containing fumarase = test: Fumarase activity in cytosolic and mitochondrial fractions of treated T. brucei 427; assay type: cell-based, Trypanosoma brucei; conditions: 0.12 μM compound, 24 h; for reduction of cytosolic fumarase activity: cytosolic fraction; for reduction of mitochondrial fumarase activity: mitochondrial fraction
Experimental: (§2) T. brucei 427 bloodstream forms were preincubated for 24 h in appropriate conditions (0.12 μM mitoDFO, 0.12 μM DFO, and no addition) and harvested, and cytosolic and mitochondrial fractions were separated by digitonin fractionation as described previously.[46] Briefly, cells were spun down (1200 g, 15 min, 4 °C) and resuspended in SHE buffer (250 mM sucrose, 25 mM HEPES, 1 mM EDTA, pH 7.4), and protein concentration was measured using a BCA kit (Sigma-Aldrich). Subsequently, cells were transferred into HBSS (Sigma-Aldrich) and digitonin (Calbiochem) was added in the protein/digitonin ratio of 1/0.15 for 4 min and spun (21 000 g, 2 min, 4 °C). The supernatant was collected and placed on ice as a cytosolic fraction. The remaining pellet was lysed using 0.1% Triton X-100 in HBSS for 5 min, resuspended, washed in HBSS twice, and used as a mitochondrial fraction. The activities of cytosolic pyruvate kinase and mitochondrial threonine dehydrogenase were assessed in all conditions using the spectrophotometric assay at […], as described in ref ([46]), and served both as markers of successful fraction preparation and to assess the effect of the studied compounds. Briefly, pyruvate kinase was measured in TEA buffer (0.1 M triethanolamine, 5 mM MgSO4, 50 mM KCl, pH 7.6) with added 2.8 mM phosphoenolpyruvate, 2 mM ADP, 0.3 mM NADH, and lactate dehydrogenase. Threonine dehydrogenase was measured in 0.2 M Tris–HCl buffer, pH 8.6, 0.25 KCl with 120 mM threonine, and 2.5 mM NAD^+. Fumarase was measured at […] in 2 mM Tris–HCl buffer, pH 7.5, with 20 mM malate.

[1] = tested on: mitochondrial threonine dehydrogenase; test: Threonine dehydrogenase activity in mitochondrial fraction of treated T. brucei 427; assay type: cell-based, Trypanosoma brucei; conditions: 0.12 μM compound, 24 h
Experimental: as §2, with “The supernatant was collected and placed on ice as a cytosolic fraction. The remaining pellet was lysed using 0.1% Triton X-100 in HBSS for 5 min, resuspended, washed in HBSS twice, and used as a mitochondrial fraction.” left out

murine macrophage = test: Murine macrophage axenic monoculture EC50; assay type: cell-based, mouse; conditions: Mus musculus, Macrophage, read-out: EC50 axenic murine macrophage
[2] = axenic monoculture, read-out: EC50 axenic Leishmania mexicana
[3] = iron-free compound, L. mexicana (amastigote), 120 h, read-out: EC50 –Fe
[4] = pre-treated with equimolar iron, L. mexicana (amastigote), 120 h, read-out: EC50 +Fe

In the case of CC(=O)N(O)CCCCCNC(=O)CCC(=O)N(O)CCCCCNC(=O)CCC(=O)N(O)CCCCCN [DFO, Deferoxamine, reference compound], the EC50 (Human fibroblast BJ1; iron-free compound, Human fibroblast BJ1, read-out: EC50 –Fe) is reported as > 100 µM, the EC50 (Human fibroblast BJ1; pre-treated with equimolar iron, Human fibroblast BJ1, read-out: EC50 +Fe) is reported as > 100 µM and the “selectivity (for −Fe)” value (T. brucei STIB (BSF)) is reported as >38. For the same compound, the EC50 (T. brucei STIB (BSF); iron-free compound, T. brucei STIB (BSF), read-out: EC50 –Fe) was 2.61 ± 0.753 µM, the EC50 (T. brucei STIB (BSF); pre-treated with equimolar iron, T. brucei STIB (BSF), read-out: EC50 +Fe) was 14.5 ± 1.18 µM and the “selectivity (for −Fe)” value (T. gambiense (BSF)) was >40. The EC50 (T. gambiense (BSF); iron-free compound, T. gambiense (BSF), read-out: EC50 –Fe) was 2.47 ± 1.16 µM, the EC50 (T. gambiense (BSF); pre-treated with equimolar iron, T. gambiense (BSF), read-out: EC50 +Fe) was > 25 µM and the EC50 (L. mexicana (amastigote); [2]) was > 25 µM. For the same compound, the EC50 (L. mexicana (amastigote); [3]) was > 25 µM, the EC50 (L. mexicana (amastigote); [4]) was > 25 µM and the EC50 (L. major (promastigote); iron-free compound, L. major (promastigote), read-out: EC50 –Fe) was > 25 µM. The EC50 (L. major (promastigote); pre-treated with equimolar iron, L. major (promastigote), read-out: EC50 +Fe) was > 25 µM, the “selectivity (for −Fe)” value (P. falciparum) was >8 and the EC50 (P. falciparum; iron-free compound, P. falciparum, 48 h, read-out: EC50 –Fe) was 12.7 ± 0.6 µM. For the same compound, the EC50 (P. falciparum; pre-treated with equimolar iron, P. falciparum, 48 h, read-out: EC50 +Fe) was > 50 µM, the EC50 (A. castellanii; iron-free compound, A. castellanii, read-out: EC50 –Fe) was 8.9 ± 0.6 µM and the EC50 (A. castellanii; pre-treated with equimolar iron, A. castellanii, read-out: EC50 +Fe) was > 50 µM. For the same compound, the “selectivity (for −Fe)” value (A. castellanii) was >11, the “% of live cells” value (T. brucei BSF cells; 10 µM DFO, 24h) was 99,1% and the “% of live cells” value (T. brucei BSF cells; 10 µM DFO, 36h) was 97,5%. The “% of live cells” value (T. brucei BSF cells; 10 µM DFO, 48h) was 74,3%, the “% of live cells” value (T. brucei BSF cells; 10 µM DFO, 72h) was 58,6% and the “% of live cells” value (T. brucei BSF cells; 100 µM DFO, 24h) was 95,5%. The “% of live cells” value (T. brucei BSF cells; 100 µM DFO, 36h) was 78,2%, the “% of live cells” value (T. brucei BSF cells; 100 µM DFO, 48h) was 62,1% and the “% of live cells” value (T. brucei BSF cells; 100 µM DFO, 72h) was 54,8%. The “reduction of cytosolic fumarase activity” value (iron-containing fumarase) was “no significant effect”, the “reduction of mitochondrial fumarase activity” value (iron-containing fumarase) was “no significant effect” and the threonine dehydrogenase activity [1] was “not”. The EC50 (murine macrophage; axenic monoculture) was > 25 µM.
With CC(=O)N(O)CCCCCNC(=O)CCC(=O)N(O)CCCCCNC(=O)CCC(=O)N(O)CCCCCN(CCCCCCCCCC[P+](c1ccccc1)(c1ccccc1)c1ccccc1)CCCCCCCCCC[P+](c1ccccc1)(c1ccccc1)c1ccccc1 [mitoDFO] the EC50 (Human fibroblast BJ1; Homo sapiens, Fibroblast, read-out: EC50 –Fe) was 8.9 ± 3.2 µM, the “DFO/mitoDFO ratio (−Fe)” value (Human fibroblast BJ1; Human fibroblast BJ1) was >11.2 and the “mitoDFO EC50 ratio + Fe/–Fe” value (Human fibroblast BJ1; Human fibroblast BJ1) was 2.5. For the same compound, the “selectivity (for −Fe)” value (T. brucei STIB (BSF)) was 28, the “DFO/mitoDFO ratio (−Fe)” value (T. brucei STIB (BSF); T. brucei STIB (BSF)) was 8.1 and the EC50 (T. brucei STIB (BSF); read-out: EC50 –Fe) was 0.32 ± 0.067 µM. For the same compound, the “selectivity (for −Fe)” value (T. gambiense (BSF)) was 49, the “DFO/mitoDFO ratio (−Fe)” value (T. gambiense (BSF); T. gambiense (BSF)) was 13.7 and the “mitoDFO EC50 ratio + Fe/–Fe” value (T. gambiense (BSF); T. gambiense (BSF)) was 1.2. For the same compound, the EC50 (T. gambiense (BSF); GAMBIENSE, read-out: EC50 –Fe) was 0.181 ± 0.043 µM, the “selectivity (for −Fe)” value (L. mexicana (amastigote); EC50 human fibroblasts / EC50 L. mexicana (amastigote)) was 6 and the “DFO/mitoDFO ratio (−Fe)” value (L. mexicana (amastigote); L. mexicana (amastigote)) was >15.6. For the same compound, the “mitoDFO EC50 ratio + Fe/–Fe” value (L. mexicana (amastigote); L. mexicana (amastigote)) was 1.5, the EC50 (L. mexicana (amastigote); [2]) was 1.56 ± 0.5 µM and the EC50 (L. mexicana (amastigote); [3]) was 1.6 ± 0.5 µM. For the same compound, the EC50 (L. mexicana (amastigote); [4]) was 2.4 ± 0.5 µM, the “selectivity (for −Fe)” value (L. major (promastigote); EC50 human fibroblasts / EC50 L. major (promastigote)) was 5 and the “DFO/mitoDFO ratio (−Fe)” value (L. major (promastigote); L. major (promastigote)) was >13.2. The “mitoDFO EC50 ratio + Fe/–Fe” value (L. major (promastigote); L. major (promastigote)) was 4.8, the EC50 (L. major (promastigote); read-out: EC50 –Fe) was 1.9 ± 0.6 µM and the “selectivity (for −Fe)” value (P. falciparum) was 27. For the same compound, the “DFO/mitoDFO ratio (−Fe)” value (P. falciparum; P. falciparum) was 38.0, the “mitoDFO EC50 ratio + Fe/–Fe” value (P. falciparum; P. falciparum) was 1.4 and the EC50 (P. falciparum) was 0.334 ± 0.01 µM. The EC50 (P. falciparum; 48 h, read-out: EC50 –Fe) was 0.33 ± 0.01 µM, the “DFO/mitoDFO ratio (−Fe)” value (A. castellanii; A. castellanii) was 11.1 and the “mitoDFO EC50 ratio + Fe/–Fe” value (A. castellanii; A. castellanii) was 1.3. For the same compound, the “selectivity (for −Fe)” value (A. castellanii) was 11, the “% of live cells” value (T. brucei BSF cells; 0,1 µM mitoDFO, 24h) was 99,1% and the “% of live cells” value (T. brucei BSF cells; 0,1 µM mitoDFO, 36h) was 97,9%. For the same compound, the “% of live cells” value (T. brucei BSF cells; 0,1 µM mitoDFO, 48h) was 66,2%, the “% of live cells” value (T. brucei BSF cells; 0,1 µM mitoDFO, 72h) was 53,8% and the “% of live cells” value (T. brucei BSF cells; 0,05 µM mitoDFO, 24h) was 98,6%. For the same compound, the “% of live cells” value (T. brucei BSF cells; 0,05 µM mitoDFO, 36h) was 96,1%, the “% of live cells” value (T. brucei BSF cells; 0,05 µM mitoDFO, 48h) was 62,1% and the “% of live cells” value (T. brucei BSF cells; 0,05 µM mitoDFO, 72h) was 52,8%. For the same compound, the “% of live cells” value (T. brucei BSF cells; 0,25 µM mitoDFO, 24h) was 94,4%, the “% of live cells” value (T. brucei BSF cells; 0,25 µM mitoDFO, 36h) was 82,5% and the “% of live cells” value (T. brucei BSF cells; 0,25 µM mitoDFO, 48h) was 70,2%. For the same compound, the “% of live cells” value (T. brucei BSF cells; 0,25 µM mitoDFO, 72h) was 64,3%, the cells alive (T. brucei BSF cells; 24 h incubation with up to 0.25 μM) was “more than 90%” and the living cells (T. brucei BSF cells; twice the EC50 concentration, 36 h) was “more than 95%”. The “reduction of cytosolic fumarase activity” value (iron-containing fumarase) was “approximately 3 fold”, the “reduction of mitochondrial fumarase activity” value (iron-containing fumarase) was “approximately 3 fold” and the threonine dehydrogenase activity [1] was “significantly reduced”. The EC50 (murine macrophage) was 6.34 ± 4.45 µM.
